Source: US12378247B2, “Mesylate salt of para-topolin, compositions containing said salt and use thereof” (USTAV EXPERIMENTALNI BOTANIKY AV CR, V. V. I., priority 2020, dated 2025)
Converted amounts (≈) assume the structure as drawn. Counter-ions that a name gives are not always drawn. Like-named read-outs stand apart in the source and are kept apart here.

How the values were obtained:
[1] = Solubility in various organic solvents; assay type: physicochemical
Protocol: Solubility in various organic solvents was measured using the following protocol. Approximately 10 mg portions of para-topolin and crystalline para-topolin mesylate salt were placed in different vials, separately. Five volume aliquots of each solvent were added exclusively to a vial. Between each addition, the mixture was checked for dissolution and if no dissolution was apparent, the procedure was continued until dissolution was observed or further volumes had been added.

[2] = ORAC (Oxygen Radical Absorbance Capacity), ability to scavenge free radicals; assay type: biochemical; details: n = 3
Protocol: The ability of the substance to scavenge free radicals in vitro was determined using the ORAC (Oxygen Radical Absorbance Capacity) method. Briefly, 100 μl of fluorescein ([…]) and 25 μl of tested substance solution were pipetted into each well of a 96-well microtiter plate preheated to 37° C. The reaction itself was started by the addition of 25 μL 250 mM AAPH. After shaking for 5 s, the fluorescence (Ex. 485 nm, Em. 510 nm) was read every 3 min for 90 min using an Infinite 200 instrument (TECAN, Switzerland). The area under the curve was used to express the antioxidant capacity relative to trolox, which is used as a standard. […] Such activities are likely to be closely related to the electron-rich C6-hydroxybenzylamino substituent system.

Rat glioma C6 cells = assay: Anti-inflammatory activity: isoproterenol-induced intracellular cAMP synthesis; assay type: cell-based
Protocol: The anti-inflammatory activity of para-topolin and para-topolin mesylate was determined; cytokinin kinetin was also evaluated as a control. Rat glioma C6 cells (ATCC No. CCL107) were cultured in a monolayer in chemically defined beser medium containing Ham's F10/minimal essential medium (1:1 v/v), 2 mM L-glutamine, 1% (v/v). Minimum vitamins of essential medium (100×), 1% (v/v) minimum essential amino acids (100×), 100 U/ml penicillin, […] streptomycin and 30 nM sodium selenite. Incubation was performed at 37° C. in a 100% humidified atmosphere. The assays were performed in logarithmic growth phase at a density of 2.5×10^5 cells/cm^2. Intracellular cAMP synthesis was induced by the addition of 5 mM (−)-isoproterenol; at the same time, various concentrations of tested compounds were added at the same time as (−)-isoproterenol. After 30 minutes of incubation, the cellular amount of CAMP was determined by ELISA (cAMP-enzyme immunoassay from Amersham). IC50 values were determined from the […] dose-response curve.

[3] = system: Senescent human diploid fibroblasts; assay: Senescent cells (beta-galactosidase X-gal staining) in human fibroblast culture; assay type: cell-based
Protocol: Senescent human diploid fibroblasts (cells of different levels of passage: passage 20-P20; passage 40—labeled P40; passage 80—labeled P80) were seeded in a 24-well plate (10,000 cells/well). The culture medium (DMEM containing 5 g/l glucose, 2 mM glutamine, 100 U/ml penicillin, 100 μg/ml streptomycin and 10% fetal calf serum) was removed and replaced with culture medium containing test compound in a concentration range of 0 to 12.5 μM. Each concentration was tested in triplicate. The cells were then incubated at 37° C. […] In this experiment, senescent cells, but not other cells, were stained blue due to β-galactosidase on the substrate. […] In the oldest cells, there were only blue cells, from bright blue to almost opaque in color. Both para-topolins (base and mesylate salt) were effective in maintaining much lower levels of senescent cells after 80 passages. In the case of long-term culture, the treated cells were able to live 30% longer than the control cells.

[4] = system: Human diploid fibroblast BJ; assay: MTT cytotoxicity assay in normal fibroblasts; assay type: cell-based; details: 72 hours
Protocol: MTT (metabolic tetrazolium toxicity) assay is a standard colorimetric assay for evaluation of cytotoxicity. Mitochondrial dehydrogenase activity converts yellow MTT into violet formazan which is measured by means of spectrometry. Human diploid fibroblast BJ (passage 18-22) were seeded into 96-well plate (5.000 cells per well). After 6 hours cultivation medium (DMEM with 5 g/l glucose, 2 mM glutamine, 100 U/ml penicillin, […] streptomycin, 10% fetal calf serum and sodium bicarbonate) was replaced with the cultivation medium containing test compounds in concentration range of 0-200 μM. Highest concentration was adjusted if the solubility of the compound was limiting. Every concentration was tested in pentaplicate. MTT was added to the cells after 72 hours incubation (final concentration 0.5 mg/ml) and incubation continued for another 3 hours. MTT was solubilised by DMSO and absorbance at 570 nm was measured. Growth inhibition (GI) was estimated using the following equitation: GI=(mean A drug exposed wells-mean Ablank/mean Acontrol wells−mean Ablank)×100%. The GI20 value, the drug concentration causing 20% decrease in mitochondrial dehydrogenase activity, was calculated from the obtained dose response curves.

[5] = system: Salmonella typhimurium strain TA 98, TA 100, TA 1535, TA 1537 and Escherichia coli strain WP2 avrA; assay: Ames test (bacterial reverse mutation assay); assay type: cell-based; details: 10-1000 μg per plate, with and without metabolic activation (rat liver supernatant)
Protocol: Para-topolin and para-topolin mesylate were tested for mutagenicity by a bacterial reverse mutation assay. The performance of the test was based on the EU method B.13/14 Mutagenicity-Reverse mutation test using bacteria, Council Regulation (EC) No. 440/2008, which is analogous to the OECD Test Guideline No. 471. Four indicators of Salmonella typhimurium strain TA 98, TA 100, TA 1535, TA 1537 were used and one Escherichia coli strain WP2 avrA was also used. The test substances were dissolved in dimethyl sulfoxide (DMSO) and tested at doses of 10-1000 μg per plate, which was applied to 0.1 ml plates. The experiments were performed with metabolic activation with rat liver supernatant and cofactor mixture as well as without metabolic activation.

[6] = isoproterenol-induced cAMP, C6 cells

## Oc1ccc(CNc2ncnc3nc[nH]c23)cc1 [para-topolin mesylate, 6-(4-hydroxybenzylamino) purine (para-topolin) mesylate (methylsulphonate)]
[1]; DMF, listed as p-topolin mesylate
  Solubility: 14000 µg/mL
[1]; DMSO, listed as p-topolin mesylate
  Solubility: 10000 µg/mL
[1]; acetone, listed as p-topolin mesylate
  Solubility: 330 µg/mL
[1]; acetonitrile
  Solubility: <250 µg/mL
[1]; ethanol, listed as p-topolin mesylate
  Solubility: 400 µg/mL
[1]; heptane
  Solubility: <100 µg/mL
[1]; methanol, listed as p-topolin mesylate
  Solubility: 5000 µg/mL
[2]; listed as 6-(4-hydroxybenzylamino)purinium mesylate (pT mesylate)
  ORAC Average(TE), Trolox equivalents on equimolar basis: 21.436 TE
Rat glioma C6 cells; [6]
  Anti-inflammatory activity (in words): showed anti-inflammatory activity
  Anti-inflammatory activity relative to free base para-topolin: twice more active
[3]; cell passage P20, listed as 6-(4-hydroxybenzylamino)purine mesylate (para-topolin mesylate)
  Senescent cells (%): 3%
[3]; cell passage P40, listed as 6-(4-hydroxybenzylamino)purine mesylate (para-topolin mesylate)
  Senescent cells (%): 12%
[3]; cell passage P80, listed as 6-(4-hydroxybenzylamino)purine mesylate (para-topolin mesylate)
  Senescent cells (%): 21%
[4]; listed as 6-(4-hydroxybenzylamino)purine mesylate (para-topolin mesylate)
  Cytotoxicity for Human Diploid Fibroblasts GI20: >167 µM
[5]
  Mutagenicity: non-mutagenic

## Oc1ccc(CNc2ncnc3nc[nH]c23)cc1 [para-topolin, 6-(4-Hydroxybenzylamino) purine]
[1]; DMF, listed as p-topolin
  Solubility: 5000 µg/mL (≈ 20700 µM)
[1]; DMSO, organic solvent or mixture, thermodynamic from solid, DMSO, read-out: Solubility
  Solubility: 6660 µg/mL (≈ 27600 µM)
[1]; acetone, organic solvent or mixture, thermodynamic from solid, acetone, read-out: Solubility
  Solubility: 200 µg/mL (≈ 829 µM)
[1]; acetonitrile, organic solvent or mixture, thermodynamic from solid, acetonitrile, read-out: Solubility
  Solubility: < 250 µg/mL
[1]; ethanol, organic solvent or mixture, thermodynamic from solid, ethanol, read-out: Solubility
  Solubility: 250 µg/mL (≈ 1040 µM)
[1]; heptane, organic solvent or mixture, thermodynamic from solid, heptane, read-out: Solubility
  Solubility: < 100 µg/mL
[1]; methanol, listed as p-topolin
  Solubility: 250 µg/mL (≈ 1040 µM)
[2]; listed as 6-(4-hydroxybenzylamino)purine (pT)
  ORAC Average(TE), Trolox equivalents on equimolar basis: 16.799 TE
Rat glioma C6 cells; Rattus norvegicus, C6, 0.5 h, 5 mM (−)-isoproterenol, 30 minutes, cAMP by ELISA
  IC50: 7 µM
Rat glioma C6 cells; [6]
  Anti-inflammatory activity (in words): showed anti-inflammatory activity
[3]; cell passage P20, listed as 6-(4-hydroxybenzylamino)purine (para-topolin)
  Senescent cells (%): 4%
[3]; cell passage P40, listed as 6-(4-hydroxybenzylamino)purine (para-topolin)
  Senescent cells (%): 14%
[3]; cell passage P80, listed as 6-(4-hydroxybenzylamino)purine (para-topolin)
  Senescent cells (%): 25%
[4]; listed as 6-(4-hydroxybenzylamino)purine (para-topolin)
  Cytotoxicity for Human Diploid Fibroblasts GI20: 138 µM
[5]
  Mutagenicity: non-mutagenic
